This note sets out measurements from patent US20190071416A1, “COMPOUNDS FOR TREATMENT OF CANCER AND EPIGENETICS” (Agency For Science, Technology and Research, priority 2015, published 2019).

This assay has as its target T1, SMYD3 (Homo sapiens, UniProt Q9H7B4).
T1 sequence (Q9H7B4 1-428): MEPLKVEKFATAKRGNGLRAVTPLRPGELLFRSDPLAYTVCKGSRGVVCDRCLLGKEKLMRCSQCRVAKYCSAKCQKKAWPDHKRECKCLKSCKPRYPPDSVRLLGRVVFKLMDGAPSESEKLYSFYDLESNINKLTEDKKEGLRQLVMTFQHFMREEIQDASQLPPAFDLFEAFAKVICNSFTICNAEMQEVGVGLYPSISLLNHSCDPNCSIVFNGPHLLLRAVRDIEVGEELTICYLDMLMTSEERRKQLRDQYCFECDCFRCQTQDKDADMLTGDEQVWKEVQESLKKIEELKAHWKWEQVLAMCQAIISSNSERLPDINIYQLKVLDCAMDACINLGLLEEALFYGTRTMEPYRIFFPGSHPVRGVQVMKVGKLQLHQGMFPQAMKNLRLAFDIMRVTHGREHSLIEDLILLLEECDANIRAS
As to the kind of experiment: SMYD3 biochemical assay (MTase-Glo, MAP3K2 peptide substrate). The settings on record: Table 3; MTase assay, MAP3K2 peptide substrate; read-out: IC50. The gist of the method:
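Luminescent readout of SAH production (coupled SAH→ATP conversion, MTase-Glo) after SMYD3 reacted 30 min at room temperature with 1.0 µM SAM and 10 µM MAP3K2 peptide, both final. Non-linear regression gave IC50 values.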
A word on the IC50: it is the concentration at which inhibition is half-maximal. Consider `C[C@@H]1CN(C(=O)c2ccc3c(Cl)cc(-c4cc(F)c(O)c(F)c4)nc3c2)CCN1C(=O)OCCCF` [B235, 3-Fluoropropyl (R)-4-(4-chloro-2-(3,5-difluoro-4-hydroxyphenyl)quinoline-7-carbonyl)-2-methylpiperazine-1-carboxylate], for which the IC50 was determined as 230 nM.
`CCCOC(=O)N1CCN(C(=O)c2ccc3c(Cl)cc(-c4ccc(C(=O)NC)c(C)c4)nc3c2)CC1` [B236, Propyl 4-(4-chloro-2-(3-methyl-4-(methylcarbamoyl)phenyl)quinoline-7-carbonyl)piperazine-1-carboxylate]: the IC50 is 360 nM.
In the case of `CCCOC(=O)N1CCN(C(=O)c2ccc3c(Cl)cc(-c4ccc5oc(C)nc5c4)nc3c2)CC1` [B237, Propyl 4-(4-chloro-2-(2-methylbenzo[d]oxazol-5-yl)quinoline-7-carbonyl)piperazine-1-carboxylate], the IC50 was determined as 200 nM.
`CCCOC(=O)N1CCN(C(=O)c2ccc3c(Cl)cc(-c4ccc(N5CCCC5)c(F)c4)nc3c2)CC1` [B238, Propyl 4-(4-chloro-2-(3-fluoro-4-(pyrrolidin-1-yl)phenyl)quinoline-7-carbonyl)piperazine-1-carboxylate]: the half-inhibitory concentration (IC50) stood at 3500 nM.
Regarding `CCCOC(=O)N1CCN(C(=O)c2ccc3c(Cl)cc(-c4ccc(C(C)OCC)cc4)nc3c2)CC1` (centres unmarked) [B239, Propyl 4-(4-chloro-2-(4-(1-ethoxyethyl)phenyl)quinoline-7-carbonyl)piperazine-1-carboxylate], the IC50 stood at 1300 nM.
The same measure for `CCCOC(=O)N1CCN(C(=O)c2ccc3c(Cl)cc(-c4ccc(C(=O)NC)c(F)c4)nc3c2)[C@@H](C)C1` [B240, Propyl (S)-4-(4-chloro-2-(3-fluoro-4-(methylcarbamoyl)phenyl)quinoline-7-carbonyl)-3-methylpiperazine-1-carboxylate]: 250 nM; for `CCCOC(=O)N1CCN(C(=O)c2ccc3c(Cl)cc(-c4ccc5ocnc5c4)nc3c2)[C@@H](C)C1` [B241, Propyl (S)-4-(2-(benzo[d]oxazol-5-yl)-4-chloroquinoline-7-carbonyl)-3-methylpiperazine-1-carboxylate]: 240 nM.
As for `CCCOC(=O)N1CCN(C(=O)c2ccc3c(Cl)cc(-c4ccc(COCC5CC5)cc4)nc3c2)CC1` [B242, Propyl 4-(4-chloro-2-(4-((cyclopropylmethoxy)methyl)phenyl)quinoline-7-carbonyl)piperazine-1-carboxylate], the IC50 is 670 nM.
Take `CCCOC(=O)N1CCN(C(=O)c2ccc3c(Cl)cc(-c4ccc5ocnc5c4)nc3c2)C[C@H]1C` [B243, Propyl (R)-4-(2-(benzo[d]oxazol-5-yl)-4-chloroquinoline-7-carbonyl)-2-methylpiperazine-1-carboxylate]: the IC50 stood at 63 nM.
On to `CCCOC(=O)N1CCN(C(=O)c2ccc3c(Cl)cc(-c4ccc(C(C)(C)O)cc4)nc3c2)CC1` [B244, Propyl 4-(4-chloro-2-(4-(2-hydroxypropan-2-yl)phenyl)quinoline-7-carbonyl)piperazine-1-carboxylate], for which the IC50 is 140 nM.
Turning to `CNC(=O)c1ccc(-c2cc(Cl)c3ccc(C(=O)N4CCN(C(=O)OCC(C)C)CC4)cc3n2)cc1` [B245, Isobutyl 4-(4-chloro-2-(4-(methylcarbamoyl)phenyl)quinoline-7-carbonyl)piperazine-1-carboxylate], the IC50 came out at 1010 nM.
For `CC(C)COC(=O)N1CCN(C(=O)c2ccc3c(Cl)cc(-c4ccn(C)c4)nc3c2)CC1` [B246, Isobutyl 4-(4-chloro-2-(1-methyl-1H-pyrrol-3-yl)quinoline-7-carbonyl)piperazine-1-carboxylate], the IC50 was found to be 270 nM.
As for `CNC(=O)c1ccc(-c2cc(Cl)c3ccc(C(=O)N4CCN(C(=O)OCCF)CC4)cc3n2)cc1` [B247, 2-Fluoroethyl 4-(4-chloro-2-(4-(methylcarbamoyl)phenyl)quinoline-7-carbonyl)piperazine-1-carboxylate], the IC50 is 7400 nM.
`Cn1ccc(-c2cc(Cl)c3ccc(C(=O)N4CCN(C(=O)OCCF)CC4)cc3n2)c1` [B248, 2-Fluoroethyl 4-(4-chloro-2-(1-methyl-1H-pyrrol-3-yl)quinoline-7-carbonyl)piperazine-1-carboxylate]: the IC50 is 140 nM.
As for `CCCOC(=O)N1CCN(C(=O)c2ccc3c(Cl)cc(-c4cnn(CC(N)=O)c4)nc3c2)CC1` [B249, Propyl 4-(2-(1-(2-amino-2-oxoethyl)-1H-pyrazol-4-yl)-4-chloroquinoline-7-carbonyl)piperazine-1-carboxylate], the IC50 is 190 nM.
The value for `CCCOC(=O)N1CCN(C(=O)c2ccc3c(Cl)cc(-c4cn[nH]c4C(F)(F)F)nc3c2)CC1` [B250, Propyl 4-(4-chloro-2-(5-(trifluoromethyl)-1H-pyrazol-4-yl)quinoline-7-carbonyl)piperazine-1-carboxylate] was 4900 nM; that for `CCCOC(=O)N1CCN(C(=O)c2ccc3c(Cl)cc(-c4cc[nH]c4)nc3c2)C[C@H]1C` [B251, Propyl (R)-4-(4-chloro-2-(1H-pyrrol-3-yl)quinoline-7-carbonyl)-2-methylpiperazine-1-carboxylate] was 43 nM; that for `CCCOC(=O)N1CCN(C(=O)c2ccc3c(Cl)cc(-c4ccn(S(C)(=O)=O)c4)nc3c2)CC1` [B252, Propyl 4-(4-chloro-2-(1-(methylsulfonyl)-1H-pyrrol-3-yl)quinoline-7-carbonyl)piperazine-1-carboxylate] was 520 nM.
Take `CCCOC(=O)N1CCN(C(=O)c2ccc3c(Cl)cc(-c4cc(F)c(C(N)=O)c(F)c4)nc3c2)CC1` [B253, Propyl 4-(2-(4-carbamoyl-3,5-difluorophenyl)-4-chloroquinoline-7-carbonyl)piperazine-1-carboxylate]: the IC50 is 490 nM.
Regarding `CCCOC(=O)N1CCN(C(=O)c2ccc3c(Cl)cc(-c4cc[nH]c4)nc3c2)[C@@H](C)C1` [B254, Propyl (S)-4-(4-chloro-2-(1H-pyrrol-3-yl)quinoline-7-carbonyl)-3-methylpiperazine-1-carboxylate], the IC50 stood at 54 nM.
With `CCCOC(=O)N1CCN(C(=O)c2ccc3c(Cl)cc(-c4ccc(CO)cc4)nc3c2)CC1` [B255, Propyl 4-(4-chloro-2-(4-(hydroxymethyl)phenyl)quinoline-7-carbonyl)piperazine-1-carboxylate], the IC50 came out at 28 nM.
The same measure for `CCCOC(=O)N1CCN(C(=O)c2ccc3c(Cl)cc(-c4ccc(COCC)cc4)nc3c2)CC1` [B256, Propyl 4-(4-chloro-2-(4-(ethoxymethyl)phenyl)quinoline-7-carbonyl)piperazine-1-carboxylate]: 500 nM.
With `CCCOC(=O)N1CCN(C(=O)c2ccc3c(Cl)cc(-c4ccc(CO)c(F)c4)nc3c2)CC1` [B257, Propyl 4-(4-chloro-2-(3-fluoro-4-(hydroxymethyl)phenyl)quinoline-7-carbonyl)piperazine-1-carboxylate], the IC50 was 150 nM.
Turning to `CCCOC(=O)N1CCN(C(=O)c2ccc3c(Cl)cc(-c4cc(F)c(CN)c(F)c4)nc3c2)CC1` [B258, Propyl 4-(2-(4-(aminomethyl)-3,5-difluorophenyl)-4-chloroquinoline-7-carbonyl)piperazine-1-carboxylate], the IC50 stood at 850 nM.
In the case of `C[C@@H]1CN(C(=O)c2ccc3c(Cl)cc(C4CC4)nc3c2)CCN1C(=O)OCCF` [B259, 2-Fluoroethyl (R)-4-(4-chloro-2-cyclopropylquinoline-7-carbonyl)-2-methylpiperazine-1-carboxylate], the IC50 was found to be 2600 nM.
The same measure for `C[C@H]1CN(C(=O)OCCF)CCN1C(=O)c1ccc2c(Cl)cc(C3CC3)nc2c1` [B260, 2-Fluoroethyl (S)-4-(4-chloro-2-cyclopropylquinoline-7-carbonyl)-3-methylpiperazine-1-carboxylate]: 4900 nM; for `Cn1cc(-c2cc(Cl)c3ccc(C(=O)N4CCN(C(=O)OCCF)CC4)cc3n2)cn1` [B261, 2-Fluoroethyl 4-(4-chloro-2-(1-methyl-1H-pyrazol-4-yl)quinoline-7-carbonyl)piperazine-1-carboxylate]: 2700 nM.
With `CCCOC(=O)N1CCN(C(=O)c2ccc3c(Cl)c(F)c(-c4ccn(C)c4)nc3c2)CC1` [B262, Propyl 4-(4-chloro-3-fluoro-2-(1-methyl-1H-pyrrol-3-yl)quinoline-7-carbonyl)piperazine-1-carboxylate], the IC50 was 390 nM.
The value for `CCCOC(=O)N1CCN(C(=O)c2ccc3c(Cl)cc(C4(F)CC4)nc3c2)CC1` [B263, Propyl 4-(4-chloro-2-(1-fluorocyclopropyl)quinoline-7-carbonyl)piperazine-1-carboxylate] was 13900 nM.
The value for `CCCOC(=O)N1CCN(C(=O)c2ccc3c(Cl)cc(-c4ccc(CN=[N+]=[N-])cc4)nc3c2)CC1` [B264, Propyl 4-(2-(4-(azidomethyl)phenyl)-4-chloroquinoline-7-carbonyl)piperazine-1-carboxylate] was 84 nM; that for `CCCOC(=O)N1CCN(C(=O)c2ccc3c(Cl)cc(-c4ccc(C(C)(C)O)cc4)nc3c2)C[C@H]1C` [B265, Propyl (R)-4-(4-chloro-2-(4-(2-hydroxypropan-2-yl)phenyl)quinoline-7-carbonyl)-2-methylpiperazine-1-carboxylate] was 67 nM; that for `CC(C)(O)c1ccc(-c2cc(Cl)c3ccc(C(=O)N4CCN(C(=O)OCCF)CC4)cc3n2)cc1` [B266, 2-Fluoroethyl 4-(4-chloro-2-(4-(2-hydroxypropan-2-yl)phenyl)quinoline-7-carbonyl)piperazine-1-carboxylate] was 3300 nM.
